# Assay results from US9096548B2, “Pyrazine amide compounds” (Boehringer Ingelheim International GmbH, priority 2013, dated 2015).
# Counter-ions that a name gives are not always drawn.
# Biological target: T1, ENaC (Epithelial Sodium Channel) (Mus musculus, UniProt Q61180+Q9WU38+Q9WU39)
# T1 construct: Mouse kidney M−1 cells were cultivated in DMEM; endogenous in cells; host or cells: Mouse kidney M-1 cells, cultivated with dexamethasone on transwell filters
# T1 sequence (Q61180 1-699): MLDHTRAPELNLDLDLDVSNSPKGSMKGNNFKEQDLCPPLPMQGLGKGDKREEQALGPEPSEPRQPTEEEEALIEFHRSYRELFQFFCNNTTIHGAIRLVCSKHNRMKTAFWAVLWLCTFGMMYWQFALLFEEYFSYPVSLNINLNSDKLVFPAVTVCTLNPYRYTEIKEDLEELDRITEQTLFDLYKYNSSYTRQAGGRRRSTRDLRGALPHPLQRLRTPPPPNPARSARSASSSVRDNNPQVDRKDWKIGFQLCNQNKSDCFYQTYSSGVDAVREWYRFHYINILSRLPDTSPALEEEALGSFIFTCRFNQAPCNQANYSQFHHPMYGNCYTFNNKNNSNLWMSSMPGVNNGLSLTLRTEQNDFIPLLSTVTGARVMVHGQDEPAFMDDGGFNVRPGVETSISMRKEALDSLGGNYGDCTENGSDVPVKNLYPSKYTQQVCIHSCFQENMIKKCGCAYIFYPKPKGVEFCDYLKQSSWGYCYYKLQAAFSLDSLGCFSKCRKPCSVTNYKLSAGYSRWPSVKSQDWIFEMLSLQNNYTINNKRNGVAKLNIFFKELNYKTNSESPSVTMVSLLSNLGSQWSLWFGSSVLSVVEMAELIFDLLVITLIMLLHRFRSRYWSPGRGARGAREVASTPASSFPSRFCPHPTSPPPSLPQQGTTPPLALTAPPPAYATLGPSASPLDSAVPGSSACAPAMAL
# T1 sequence (Q9WU38 1-638): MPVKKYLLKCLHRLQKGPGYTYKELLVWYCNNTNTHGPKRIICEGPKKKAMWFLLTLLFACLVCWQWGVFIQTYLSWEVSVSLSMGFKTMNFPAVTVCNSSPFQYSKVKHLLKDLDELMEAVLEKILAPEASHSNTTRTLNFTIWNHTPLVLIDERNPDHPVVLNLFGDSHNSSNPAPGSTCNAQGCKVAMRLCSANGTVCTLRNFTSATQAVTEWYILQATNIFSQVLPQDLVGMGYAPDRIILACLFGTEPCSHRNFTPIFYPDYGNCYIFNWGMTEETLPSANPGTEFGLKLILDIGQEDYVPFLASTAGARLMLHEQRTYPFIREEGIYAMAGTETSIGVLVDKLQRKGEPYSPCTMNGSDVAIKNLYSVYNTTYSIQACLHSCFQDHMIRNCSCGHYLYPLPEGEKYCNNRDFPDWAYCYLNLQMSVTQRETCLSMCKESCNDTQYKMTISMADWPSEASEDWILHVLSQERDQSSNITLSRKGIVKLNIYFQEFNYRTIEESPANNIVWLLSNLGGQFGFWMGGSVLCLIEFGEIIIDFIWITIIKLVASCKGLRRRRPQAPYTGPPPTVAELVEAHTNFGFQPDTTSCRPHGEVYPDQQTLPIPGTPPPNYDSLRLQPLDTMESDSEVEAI
# T1 sequence (Q9WU39 1-655): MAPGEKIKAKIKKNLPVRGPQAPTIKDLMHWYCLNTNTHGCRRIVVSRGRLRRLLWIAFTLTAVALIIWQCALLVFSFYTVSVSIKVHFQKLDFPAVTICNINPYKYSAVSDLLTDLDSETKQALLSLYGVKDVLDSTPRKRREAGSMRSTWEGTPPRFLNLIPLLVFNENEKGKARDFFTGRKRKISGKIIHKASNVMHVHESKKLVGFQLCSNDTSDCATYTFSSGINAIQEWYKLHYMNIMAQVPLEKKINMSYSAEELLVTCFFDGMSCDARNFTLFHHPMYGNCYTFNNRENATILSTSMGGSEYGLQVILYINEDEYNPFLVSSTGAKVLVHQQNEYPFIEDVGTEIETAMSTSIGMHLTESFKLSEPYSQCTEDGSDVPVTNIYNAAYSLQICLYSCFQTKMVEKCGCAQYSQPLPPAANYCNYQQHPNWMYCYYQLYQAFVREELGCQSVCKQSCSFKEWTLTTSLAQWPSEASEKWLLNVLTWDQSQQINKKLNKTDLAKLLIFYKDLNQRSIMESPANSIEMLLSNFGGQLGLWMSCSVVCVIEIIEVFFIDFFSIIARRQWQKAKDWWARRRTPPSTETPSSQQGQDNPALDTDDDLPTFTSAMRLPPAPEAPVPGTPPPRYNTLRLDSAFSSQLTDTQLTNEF
# Test: Ussing Chamber assay (short circuit current, amiloride sensitive I_SC)
# Assay type: cell-based
# Conditions: Ussing chamber, mouse kidney M-1 cells, short circuit current, compound added to the apical solution; read-out: IC50
# In short: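 Mouse kidney M-1 cells grown 10–12 days on filters with 5 μM dexamethasone, measured in Caco-2 transport buffer at 37° C under voltage clamp. Compound applied apically at 3 μM or 1-3-10 μM; 3 μM amiloride added at end. Short circuit current inhibition given as percent of amiloride effect or IC50.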
row,SMILES,IC50 [µM]
1,"Nc1nc(N)c(C(=O)NC2CCC[N+](CCc3c[nH]c4ccccc34)(CCc3c[nH]c4ccccc34)C2)nc1Cl (stereo not shown) [Example 10.1, 3-[(3,5-Diamino-6-chloro-pyrazine-2-carbonyl)-amino]-1,1-bis-[2-(1H-indol-3-yl)-ethyl]-piperidinium chloride]",0.14
2,"COc1cccc(CCC[N+]2(CCCc3cccc(OC)c3)CCCC(NC(=O)c3nc(Cl)c(N)nc3N)C2)c1 (stereo not shown) [Example 10.2, 3-[(3,5-Diamino-6-chloro-pyrazine-2-carbonyl)-amino]-1,1-bis-[3-(3-methoxy-phenyl)-propyl]-piperidinium chloride]",0.027
3,"Nc1nc(N)c(C(=O)N[C@@H]2CCC[N+](CCCc3c(F)cccc3F)(CCCc3c(F)cccc3F)C2)nc1Cl [Example 10.3, 3-[(3,5-Diamino-6-chloro-pyrazine-2-carbonyl)-amino]-1,1-bis-[3-(2,6-difluoro-phenyl)-propyl]-piperidinium chloride]",0.047
4,"Nc1nc(N)c(C(=O)NC2CCC[N+](CCCc3ccccc3)(CCCc3ccccc3)C2)nc1Cl (stereo not shown) [Example 10.4, 3-[(3,5-Diamino-6-chloro-pyrazine-2-carbonyl)-amino]-1,1-bis-(3-phenyl-propyl)-piperidinium chloride]",0.015
5,"COc1ccc(OCC[N+]2(CCOc3ccc(OC)cc3)CCC[C@H](NC(=O)c3nc(Cl)c(N)nc3N)C2)cc1 [Example 10.6, 3-[(3,5-Diamino-6-chloro-pyrazine-2-carbonyl)-amino]-1,1-bis-[2-(4-methoxy-phenoxy)-ethyl]-piperidinium chloride]",0.104
6,"Nc1nc(N)c(C(=O)N[C@H]2CCC[N+](CCOc3ccccc3)(CCOc3ccccc3)C2)nc1Cl [Example 10.7, 3-[(3,5-Diamino-6-chloro-pyrazine-2-carbonyl)-amino]-1,1-bis-[2-phenoxy-ethyl]-piperidinium chloride]",0.158
7,"N#Cc1ccc(CCC[N+]2(CCCc3ccc(C#N)cc3)CCC[C@H](NC(=O)c3nc(Cl)c(N)nc3N)C2)cc1 [Example 10.8, 1,1-Bis-[3-(4-cyano-phenyl)-propyl]-3-[(3,5-diamino-6-chloro-pyrazine-2-carbonyl)-amino]-piperidinium chloride]",0.034

# Same assay, conditions: Ussing chamber, mouse kidney M-1 cells, short circuit current; unit inferred; read-out: IC50
row,SMILES,IC50 [µM]
1,"CN(C)CCOc1ccc(CCC[N+]2(CCCc3ccc(OCCN(C)C)cc3)CCC[C@H](NC(=O)c3nc(Cl)c(N)nc3N)C2)cc1 [Example 9.5, 3-[(3,5-Diamino-6-chloro-pyrazine-2-carbonyl)-amino]-1,1-bis-{3-[4-(2-dimethylamino-ethoxy)-phenyl]-propyl}-piperidinium chloride dihydrochloride]",0.063
2,"Nc1nc(N)c(C(=O)N[C@H]2CCC[N+](CCCc3ccc(OCCO)cc3)(CCCc3ccc(OCCO)cc3)C2)nc1Cl [Example 9.6, (S)-3-[(3,5-Diamino-6-chloro-pyrazine-2-carbonyl)-amino]-1,1-bis-{3-[4-(2-hydroxyethoxy)-phenyl]-propyl}-piperidinium chloride]",0.038
3,"Nc1nc(N)c(C(=O)NC2CCC[N+](CCCc3cccc(O)c3)(CCCc3cccc(O)c3)C2)nc1Cl (stereo not shown) [Example 10.9, 3-[(3,5-Diamino-6-chloro-pyrazine-2-carbonyl)-amino]-1,1-bis-[3-(3-hydroxy-phenyl)propyl]-piperidinium chloride]",0.013
4,"Cn1ccnc1CNC(=O)COc1cccc(CCC[N+]2(CCCc3cccc(OCC(=O)NCc4nccn4C)c3)CCC[C@H](NC(=O)c3nc(Cl)c(N)nc3N)C2)c1 [Example 10.11, (S)-3-[(3,5-Diamino-6-chloro-pyrazine-2-carbonyl)-amino]-1,1-bis-[3-(3-{[(1-methyl-1H-imidazol-2-ylmethyl)-carbamoyl]-methoxy}-phenyl)-propyl]-piperidinium hydroxide]",0.007
5,"CCOC(=O)C[N+]1(CCCc2ccc(OC)cc2)CCCC(NC(=O)c2nc(Cl)c(N)nc2N)C1 (stereo not shown) [Example 12, 3-[(3,5-Diamino-6-chloro-pyrazine-2-carbonyl)-amino]-1-ethoxycarbonylmethyl-1-[3-(4-methoxy-phenyl)-propyl]-piperidinium chloride]",0.15

# Same assay, conditions: Ussing chamber, mouse kidney M-1 cells, short circuit current; value printed in the example text with μM; read-out: IC50
row,SMILES,IC50 [µM]
1,"COC(=O)COc1cccc(CCC[N+]2(CCCc3cccc(OCC(=O)OC)c3)CCC[C@H](NC(=O)c3nc(Cl)c(N)nc3N)C2)c1 [Example 10.10, (S)-3-[(3,5-Diamino-6-chloro-pyrazine-2-carbonyl)-amino]-1,1-bis-[3-(3-methoxycarbonylmethoxy-phenyl)-propyl]-piperidinium chloride]",0.025
2,"COc1ccc(CCC[N+]2(CC(=O)OC3CCCCC3)CCCC(NC(=O)c3nc(Cl)c(N)nc3N)C2)cc1 (stereo not shown) [Example 12.1, 1-Cyclohexyloxycarbonylmethyl-3-[(3,5-diamino-6-chloro-pyrazine-2-carbonyl)-amino]-1-[3-(4-methoxy-phenyl)-propyl]-piperidinium chloride]",0.21
3,"COc1ccc(CCC[N+]2(CC(=O)O)CCCC(NC(=O)c3nc(Cl)c(N)nc3N)C2)cc1 (stereo not shown) [Example 13, 1-Carboxymethyl-3-[(3,5-diamino-6-chloro-pyrazine-2-carbonyl)-amino]-1-[3-(4-methoxy-phenyl)propyl]-piperidinium chloride]",> 1
4,"COC(=O)C[N+]1(CCCc2ccc(OC)cc2)CCCC(NC(=O)c2nc(Cl)c(N)nc2N)C1 (stereo not shown) [Example 14, 3-[(3,5-Diamino-6-chloro-pyrazine-2-carbonyl)-amino]-1-methoxycarbonylmethyl-1-[3-(4-methoxy-phenyl)-propyl]-piperidinium chloride]",0.137
